Measured values taken from publication PMC11617653, “Macrocyclic Inhibitors Targeting the Prime Site of the Fibrinolytic Serine Protease Plasmin” (Chemmedchem, 2024).
Several values for one entry are separate records, joined by “and”; a condition that tells them apart may be missing. Equal entries are not always repeated. Positions of bridges follow the written chain, without caps; N, C: chain ends. Non-standard residues stand in square brackets, D forms with d. Residues, ends and D or L forms follow the SMILES beside them. Phe(4-NH2) = Nc1ccc(C[C@H](N)C(=O)O)cc1; Trx = NC[C@H]1CC[C@H](C(=O)O)CC1; βAla = NCCC(=O)O

Columns and labels:
Type in all cases: biochemical
human plasmin = molecular target: T1, human plasmin (Homo sapiens, UniProt P00747); assay: Inhibition of human plasmin, fluorogenic substrate Mes-DArg-Phe-Arg-AMC; settings: for fold weaker plasmin inhibition than inhibitor 28: compared with cyclic inhibitor 28
T1 construct: purchased Calbiochem
T1 sequence (P00747 581-810): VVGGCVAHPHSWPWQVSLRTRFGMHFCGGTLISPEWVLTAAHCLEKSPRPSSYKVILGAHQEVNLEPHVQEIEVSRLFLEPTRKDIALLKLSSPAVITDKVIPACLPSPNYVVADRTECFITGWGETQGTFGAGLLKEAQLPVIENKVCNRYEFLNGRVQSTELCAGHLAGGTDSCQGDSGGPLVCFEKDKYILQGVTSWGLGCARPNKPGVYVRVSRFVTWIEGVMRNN
T1 sequence (P00747 97-580): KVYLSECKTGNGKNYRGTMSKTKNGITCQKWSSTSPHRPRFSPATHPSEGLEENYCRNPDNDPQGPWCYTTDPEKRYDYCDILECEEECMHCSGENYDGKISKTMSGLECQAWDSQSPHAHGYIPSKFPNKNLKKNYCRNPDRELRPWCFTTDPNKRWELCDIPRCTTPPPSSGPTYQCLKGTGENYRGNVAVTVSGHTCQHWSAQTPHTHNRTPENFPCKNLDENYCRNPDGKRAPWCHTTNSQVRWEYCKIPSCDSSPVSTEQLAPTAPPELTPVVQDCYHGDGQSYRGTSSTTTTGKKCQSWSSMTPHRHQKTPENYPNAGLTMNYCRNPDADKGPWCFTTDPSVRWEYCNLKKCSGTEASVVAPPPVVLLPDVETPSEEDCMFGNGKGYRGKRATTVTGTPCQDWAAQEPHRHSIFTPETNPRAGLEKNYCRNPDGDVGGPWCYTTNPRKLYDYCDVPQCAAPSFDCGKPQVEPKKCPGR
Protocol: All inhibitors prepared in this study act as reversible competitive plasmin inhibitors, their K i values were calculated by fitting the steady‐state velocities as function of the inhibitor concentrations using equation 1. 4‐aminophenylalanine (Phe(4‐NH2)) was incorporated as P1’ residue in the first inhibitor series, which enabled a macrocyclization via amide bond formation from its side chain amino group using various linker segments and P2’ residues (Table 1). […] The improved potency of SFTI‐1 analogues with basic P2’ residues[9] stimulated the incorporation of Arg in that position leading to inhibitor 4 with a slightly stronger inhibitory potency. A significant improvement could be achieved when using 3‐ or 4‐aminophenylacetic acid as P2’ group in combination with elongated linker residues (5‐6). […] However, inhibitor 9 is a twofold stronger plasmin inhibitor compared to its analogue 8.
For these inhibitors the steady‐state velocities were calculated by fitting the progress curves to equation 2 providing an additional apparent first‐order rate constant k obs for each curve. The steady‐state rates were used for K i determination with equation 1 and the k obs values for the calculation of the association rate constants k on according to equation 3. The dissociation rate constant k off was calculated from the known K i and k on values using equation 4. The enzyme kinetic evaluation of slow‐binding inhibitors of plasmin has already been described in detail in our two previous publications.[11, 12]
All measurements were conducted as triplicates in black 96‐well FluoroNunc MaxiSorp plates (Nunc, Langenselbold, Germany) and suitable fluorogenic substrates at room temperature. […] Each well contained a total volume of 180 μL consisting of 100 μL of inhibitor dissolved in buffer, 40 μL of the substrate Mes‐DArg‐Phe‐Arg‐AMC[11] (100 μM in assay, KM=16.1 μM) dissolved in water and 40 μL of plasmin solution (0.27 nM in assay). The following equations were used for the enzyme kinetic analysis as described in the results section and in our previous publications.[11, 12] (1) [drawing 71] (2) [drawing 72] (3) [drawing 73] (4) [drawing 74]

plasma kallikrein (PK) = plasma kallikrein (PK) (Homo sapiens, UniProt P03952); assay: Selectivity: inhibition of plasma kallikrein
Chain of plasma kallikrein (PK) (P03952 391-638): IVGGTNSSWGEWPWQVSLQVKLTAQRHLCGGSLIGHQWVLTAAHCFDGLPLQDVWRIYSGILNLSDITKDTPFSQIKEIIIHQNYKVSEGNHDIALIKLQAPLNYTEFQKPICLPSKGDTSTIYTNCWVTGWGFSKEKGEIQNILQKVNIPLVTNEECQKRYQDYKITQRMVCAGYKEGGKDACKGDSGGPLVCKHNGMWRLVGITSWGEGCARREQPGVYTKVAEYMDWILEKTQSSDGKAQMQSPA
Chain of plasma kallikrein (PK) (P03952 20-390): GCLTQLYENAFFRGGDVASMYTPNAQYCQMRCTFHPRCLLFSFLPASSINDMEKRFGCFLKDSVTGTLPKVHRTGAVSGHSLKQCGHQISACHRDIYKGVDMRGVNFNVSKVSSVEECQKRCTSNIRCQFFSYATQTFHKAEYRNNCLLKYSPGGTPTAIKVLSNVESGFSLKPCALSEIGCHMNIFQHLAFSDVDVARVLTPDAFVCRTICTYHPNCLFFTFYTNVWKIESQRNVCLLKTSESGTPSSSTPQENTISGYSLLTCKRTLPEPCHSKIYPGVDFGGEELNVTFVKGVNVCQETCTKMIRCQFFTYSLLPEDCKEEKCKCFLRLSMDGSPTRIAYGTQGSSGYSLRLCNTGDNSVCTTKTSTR
Protocol: (§1) For these three proteases a selectivity index (SI=K i(protease)/K i(plasmin)) was calculated, which is provided in brackets after the inhibition constants (Table 3).
(§2) The measurements with the related trypsin‐like serine proteases trypsin, plasma kallikrein, factor XIa, thrombin, activated protein Ca and factor Xa used in selectivity studies were performed as described previously.[11, 12]

factor XIa (fXIa) = factor XIa (fXIa) (Homo sapiens, UniProt P03951); assay: Selectivity: inhibition of factor XIa
Chain of factor XIa (fXIa) (P03951 19-387): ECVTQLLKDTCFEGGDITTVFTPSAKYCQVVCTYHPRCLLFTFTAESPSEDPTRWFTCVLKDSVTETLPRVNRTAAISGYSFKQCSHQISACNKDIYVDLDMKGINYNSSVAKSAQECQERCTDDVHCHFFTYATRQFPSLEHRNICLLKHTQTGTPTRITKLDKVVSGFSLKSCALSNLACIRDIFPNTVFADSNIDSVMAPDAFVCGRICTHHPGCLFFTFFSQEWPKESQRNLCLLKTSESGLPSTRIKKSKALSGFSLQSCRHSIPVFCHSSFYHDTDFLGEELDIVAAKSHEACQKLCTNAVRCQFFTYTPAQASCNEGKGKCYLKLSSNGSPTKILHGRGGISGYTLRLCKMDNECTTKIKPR
Chain of factor XIa (fXIa) (P03951 388-625): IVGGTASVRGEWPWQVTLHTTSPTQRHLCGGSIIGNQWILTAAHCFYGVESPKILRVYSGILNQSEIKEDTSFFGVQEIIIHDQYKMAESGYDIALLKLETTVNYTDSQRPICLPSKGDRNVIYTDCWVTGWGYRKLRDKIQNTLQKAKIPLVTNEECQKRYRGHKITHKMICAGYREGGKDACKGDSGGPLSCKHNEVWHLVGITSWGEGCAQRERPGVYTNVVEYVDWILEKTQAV
Protocol: as §1, §2

thrombin = thrombin (Homo sapiens, UniProt P00734); assay: Selectivity: inhibition of thrombin; settings: deduced from pre-assays with only three inhibitor concentrations; read-out: Thrombin K i
Protocol: as §1, §2

[1] = molecular target: activated protein C (aPC) (Homo sapiens, UniProt P04070); assay: Selectivity: inhibition of activated protein C; settings: deduced from pre-assays with only three inhibitor concentrations; read-out: aPC K i
Chain of activated protein C (aPC) (P04070 43-197): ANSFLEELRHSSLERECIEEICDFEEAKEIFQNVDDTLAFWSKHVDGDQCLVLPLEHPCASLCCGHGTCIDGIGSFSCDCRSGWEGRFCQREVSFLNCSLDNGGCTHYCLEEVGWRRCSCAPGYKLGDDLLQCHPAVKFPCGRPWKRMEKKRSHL
Chain of activated protein C (aPC) (P04070 212-461): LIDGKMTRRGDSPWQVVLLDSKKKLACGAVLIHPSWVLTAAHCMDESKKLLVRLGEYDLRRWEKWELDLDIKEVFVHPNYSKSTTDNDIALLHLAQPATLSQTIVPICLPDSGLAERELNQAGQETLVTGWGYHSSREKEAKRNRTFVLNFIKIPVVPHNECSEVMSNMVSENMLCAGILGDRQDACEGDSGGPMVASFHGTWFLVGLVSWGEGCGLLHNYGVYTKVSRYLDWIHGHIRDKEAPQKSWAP
Protocol: as §1, §2

factor Xa (fXa) = factor Xa (fXa) (Homo sapiens, UniProt P00742); assay: Selectivity: inhibition of factor Xa; settings: deduced from pre-assays with only three inhibitor concentrations; read-out: fXa K i
Chain of factor Xa (fXa) (P00742 41-179): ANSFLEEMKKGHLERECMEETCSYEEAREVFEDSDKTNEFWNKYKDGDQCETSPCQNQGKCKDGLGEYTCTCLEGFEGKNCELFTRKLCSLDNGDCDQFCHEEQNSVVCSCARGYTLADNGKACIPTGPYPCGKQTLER
Chain of factor Xa (fXa) (P00742 235-488): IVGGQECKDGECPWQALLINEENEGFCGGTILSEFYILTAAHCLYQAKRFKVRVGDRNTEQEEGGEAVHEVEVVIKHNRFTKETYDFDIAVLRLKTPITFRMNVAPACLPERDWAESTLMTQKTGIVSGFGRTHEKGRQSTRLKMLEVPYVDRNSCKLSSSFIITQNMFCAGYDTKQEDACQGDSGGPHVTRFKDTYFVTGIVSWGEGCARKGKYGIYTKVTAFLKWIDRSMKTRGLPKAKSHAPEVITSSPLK
Protocol: as §1, §2

[2] = K i (nM), inhibition of plasmin, series two, substituted Bpa in P1', and acyclic analogues, steady-state velocities, equation 1
[3] = K i (μM), inhibition of plasmin, series one, 4-aminophenylalanine in P1', steady-state velocities, equation 1

Row | Ki (human plasmin; [2]) | Ki (human plasmin; [3]) [nM] | SMILES | also measured
1 | 1.46 ± 0.07 nM |  | NC[C@H]1CC[C@H](C(=O)N[C@H]2Cc3ccc(cc3)-c3ccc(C(=O)Nc4ccccc4)c(c3)NC(=O)CNC(=O)CCCNC(=O)Cc3ccc(cc3)NC2=O)CC1 [inhibitor 32] | Ki (human plasmin; Plasmin K i, Table 3 selectivity): 1.46 nM; PK selectivity index K i(protease)/Ki(plasmin) (plasma kallikrein (PK); in brackets): 11; Ki (plasma kallikrein (PK); read-out: PK K i): 15 ± 1 nM; fXIa selectivity index K i(protease)/Ki(plasmin) (factor XIa (fXIa); in brackets): 4; Ki (factor XIa (fXIa); read-out: fXIa K i): 5.3 ± 1.4 nM; Ki (thrombin): > 25000 nM; Ki [1]: > 20000 nM; Ki (factor Xa (fXa)): > 5000 nM
2 | 13 ± 0.2 nM |  | Cc1ccc2cc1NC(=O)CCN1CCN(CC1)C(=O)Cc1ccc(cc1)NC(=O)[C@@H](NC(=O)[C@H]1CC[C@H](CN)CC1)Cc1ccc-2cc1 [inhibitor 37] | 
3 | 65.1 ± 1.7 nM |  | Cc1ccc(-c2ccc(C[C@H](NC(=O)[C@H]3CC[C@H](CN)CC3)C(=O)Nc3ccc(CC(=O)NCCCC(=O)NCC(N)=O)cc3)cc2)cc1N [inhibitor 47] | 
4 | 35.7 ± 1.1 nM |  | Cc1ccc2cc1NC(=O)CN1CCN(CC1)C(=O)Cc1ccc(cc1)NC(=O)[C@@H](NC(=O)[C@H]1CC[C@H](CN)CC1)Cc1ccc-2cc1 [inhibitor 38] | 
5 | 86.1 ± 6.6 nM |  | Cc1ccc(-c2ccc(C[C@H](NC(=O)[C@H]3CC[C@H](CN)CC3)C(=O)Nc3ccc(CC(=O)NCCCC(=O)NCC(=O)O)cc3)cc2)cc1N [inhibitor 46] | 
6 | 62.6 ± 2.3 nM |  | Cc1ccc2cc1NC(=O)CNC(=O)CCCCNC(=O)Cc1ccc(cc1)NC(=O)[C@@H](NC(=O)[C@H]1CC[C@H](CN)CC1)Cc1ccc-2cc1 [inhibitor 29] | 

Second part, the compound before the results:

Row | SMILES | Ki (human plasmin; [2]) | Ki (human plasmin; [3]) [nM] | also measured
7 | Cc1ccc2cc1NC(=O)CCCCCNC(=O)Cc1ccc(cc1)NC(=O)[C@@H](NC(=O)[C@H]1CC[C@H](CN)CC1)Cc1ccc-2cc1 [inhibitor 22] | 42 nM and 42.1 nM |  | 
8 | Cc1ccc2cc1NC(=O)CCCNC(=O)CNC(=O)Cc1ccc(cc1)NC(=O)[C@@H](NC(=O)[C@H]1CC[C@H](CN)CC1)Cc1ccc-2cc1 [inhibitor 27] | 17 ± 0.6 nM |  | fold weaker plasmin inhibition than inhibitor 28 (human plasmin): at least 20 fold
9 | Cc1ccc2cc1NC(=O)Cc1ccc(cc1)NC(=O)Cc1ccc(cc1)NC(=O)[C@@H](NC(=O)[C@H]1CC[C@H](CN)CC1)Cc1ccc-2cc1 [inhibitor 24] | 10.5 ± 1.4 nM |  | fold enhanced plasmin potency compared with compound 22 (human plasmin): 4 fold
10 | CC(C)C[C@H]1NC(=O)CCNC(=O)Cc2ccc(cc2)NC(=O)[C@@H](NC(=O)[C@H]2CC[C@H](CN)CC2)Cc2ccc(cc2)NC1=O [inhibitor 11] |  | 3850 ± 280 | 
11 | NC[C@H]1CC[C@H](C(=O)N[C@H]2Cc3ccc(cc3)NC(=O)CCCCCNC(=O)Cc3ccc(cc3)NC2=O)CC1 [inhibitor 6] |  | 1380 ± 150 | 
12 | Cc1ccc2cc1NC(=O)CNC(=O)CCNC(=O)Cc1ccc(cc1)NC(=O)[C@@H](NC(=O)[C@H]1CC[C@H](CN)CC1)Cc1ccc-2cc1 [inhibitor 25] | 33.8 ± 1.4 nM |  | fold weaker plasmin inhibition than inhibitor 28 (human plasmin): at least 20 fold
13 | NC[C@H]1CC[C@H](C(=O)N[C@H]2Cc3ccc(cc3)NC(=O)CCNC(=O)CNC(=O)Cc3ccc(cc3)NC2=O)CC1 [inhibitor 8] |  | 5530 ± 420 | 
14 | N=C(N)NCCC[C@@H]1NC(=O)[C@@H](NC(=O)[C@H]2CC[C@H](CN)CC2)Cc2ccc(cc2)NC(=O)CCNC1=O [inhibitor 4] (H-[Trx][Phe(4-NH2)]R[βAla]; lactam 2-C) |  | 110000 ± 56000 | 
15 | NC[C@H]1CC[C@H](C(=O)N[C@H]2Cc3ccc(cc3)NC(=O)CCCCNC(=O)Cc3ccc(cc3)NC2=O)CC1 [inhibitor 7] |  | 2450 ± 20 | 
16 | CC(C)C[C@@H]1NC(=O)CCNC(=O)Cc2ccc(cc2)NC(=O)[C@@H](NC(=O)[C@H]2CC[C@H](CN)CC2)Cc2ccc(cc2)NC1=O [inhibitor 10] |  | 3330 ± 410 | 
17 | Cc1ccc2cc1NC(=O)C1CCC(CC1)CNC(=O)Cc1ccc(cc1)NC(=O)C(NC(=O)C1CCC(CN)CC1)Cc1ccc-2cc1 (stereo not shown) [inhibitor 23] | 109 ± 4 nM |  | 
